Assay results as given in patent US20170334899A1, “AMINO-SUBSTITUTED ISOTHIAZOLES” (Bayer Pharma Aktiengesellschaft, priority 2014, published 2017).

Assays:
[1] = test system: human cervical tumor cell line HeLa (ATCC CCL-2); assay: SAC-Formation - Nocodazole-Induced Assay; assay type: cell-based; details: Homo sapiens, HeLa, 24 h, HeLa cells, nocodazole 0.1 μg/ml together with test compound, decrease of mitotic cells (phospho-histone H3 Ser10)
Outline: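 Loss of phospho-histone H3 Ser10-positive cells, counted against Hoechst-stained nuclei by high-content imaging, marked mitotic breakthrough. Compounds (0.005–20 μM, 0.5% DMSO) were co-dosed with 0.1 μg/ml nocodazole onto HeLa cells for 24 h at 37 °C. Curves were fitted with a four-parameter Hill equation.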

HeLa = assay: Proliferation assay (crystal violet), HeLa; assay type: cell-based; details: Homo sapiens, HeLa, 96 h, HeLa cells; 4 days incubation; crystal violet staining; read-out: IC50 inhibition of proliferation, HeLa
Outline: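 Absorbance at 595 nm of crystal-violet-stained cells after 4 days' exposure to 0.001–10 μM compound (0.5% DMSO). Values normalized to a day-0 plate (0%) and untreated cells (100%); IC50 by 4-parameter fit.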

Structure (SMILES) | IC50 [1] | IC50 (HeLa)
Cc1nsc(Nc2cncc(C(F)(F)F)n2)c1C(=O)Nc1ccc(OCC2CCN(C(=O)OC(C)(C)C)CC2)nc1 [Example 226, tert-butyl 4-{[(5-{[(3-methyl-5-{[6-(trifluoromethyl)pyrazin-2-yl]amino}-1,2-thiazol-4-yl)carbonyl]amino}pyridin-2-yl)oxy]methyl}piperidine-1-carboxylate] | 120 nM | 910 nM
Cc1nsc(Nc2cnc(C(F)(F)F)cn2)c1C(=O)Nc1ccc(OCC2CCN(C(=O)OC(C)(C)C)CC2)nc1 [Example 227, tert-butyl 4-{[(5-{[(3-methyl-5-{[5-(trifluoromethyl)pyrazin-2-yl]amino}-1,2-thiazol-4-yl)carbonyl]amino}pyridin-2-yl)oxy]methyl}piperidine-1-carboxylate] | 58 nM | 2000 nM
Cc1nsc(Nc2cc(C#N)ccn2)c1C(=O)Nc1ccc(Oc2cccc(C(F)(F)F)c2)nc1 [Example 230, 5-[(4-cyanopyridin-2-yl)amino]-3-methyl-N-{6-[3-(trifluoromethyl)phenoxy]pyridin-3-yl}-1,2-thiazole-4-carboxamide] | 89 nM | 580 nM
Cc1nsc(Nc2cnc3ccccc3n2)c1C(=O)Nc1ccc(Oc2cccnc2)nc1 [Example 231, 3-methyl-N-[6-(pyridin-3-yloxy)pyridin-3-yl]-5-(quinoxalin-2-ylamino)-1,2-thiazole-4-carboxamide] | 58 nM | 1800 nM
Cc1nsc(Nc2cnc3ccccc3n2)c1C(=O)Nc1ccc(Oc2ccc(SC(F)(F)F)cc2)nc1 [Example 233, 3-methyl-5-(quinoxalin-2-ylamino)-N-(6-{4-[(trifluoromethyl)sulfanyl]phenoxy}pyridin-3-yl)-1,2-thiazole-4-carboxamide] | 4700 nM | > 10000 nM
Cc1nsc(Nc2cnc3ccccc3n2)c1C(=O)Nc1ccc(NCCC(=O)OC(C)(C)C)nc1 [Example 236, tert-butyl N-[5-({[3-methyl-5-(quinoxalin-2-ylamino)-1,2-thiazol-4-yl]carbonyl}amino)pyridin-2-yl]-beta-alaninate] | 3000 nM | 4100 nM
COC(=O)c1cc(NC(=O)c2c(C)nsc2Nc2cnc3ccccc3n2)cc(C(=O)OC)c1 [Example 237, dimethyl 5-({[3-methyl-5-(quinoxalin-2-ylamino)-1,2-thiazol-4-yl]carbonyl}amino)isophthalate] | 580 nM | > 10000 nM
Cc1nsc(Nc2cnc3ccccc3n2)c1C(=O)Nc1ccc(NCC2CCN(C(=O)OC(C)(C)C)CC2)nc1 [Example 238, tert-butyl 4-({[5-({[3-methyl-5-(quinoxalin-2-ylamino)-1,2-thiazol-4-yl]carbonyl}amino)pyridin-2-yl]amino}methyl)piperidine-1-carboxylate] | 3500 nM | 8100 nM
Cc1nsc(Nc2cnc3ccccc3n2)c1C(=O)Nc1ccc(NC2CCCN(C(=O)OC(C)(C)C)C2)nc1 (stereo not shown) [Example 241, tert-butyl 3-{[5-({[3-methyl-5-(quinoxalin-2-ylamino)-1,2-thiazol-4-yl]carbonyl}amino)pyridin-2-yl]amino}piperidine-1-carboxylate] | 1400 nM | 9300 nM
Cc1nsc(Nc2cc(C#N)ccn2)c1C(=O)Nc1ccc(NC2CCCNC2)nc1 (stereo not shown) [Example 242, 5-[(4-cyanopyridin-2-yl)amino]-3-methyl-N-[6-(piperidin-3-ylamino)pyridin-3-yl]-1,2-thiazole-4-carboxamide] | 2600 nM | > 10000 nM
Cc1cc(C)n(-c2ccccc2NC(=O)c2c(C)nsc2Nc2cnc3ccccc3n2)n1 [Example 243, N-[2-(3,5-dimethyl-1H-pyrazol-1-yl)phenyl]-3-methyl-5-(quinoxalin-2-ylamino)-1,2-thiazole-4-carboxamide] | 1800 nM | > 10000 nM
Cc1nsc(Nc2cnc3ccccc3n2)c1C(=O)Nc1ccc(NCCNC(=O)OC(C)(C)C)nc1 [Example 244, tert-butyl (2-{[5-({[3-methyl-5-(quinoxalin-2-ylamino)-1,2-thiazol-4-yl]carbonyl}amino)pyridin-2-yl]amino}ethyl)carbamate] | 3700 nM | 4200 nM
Cc1nsc(Nc2cnc3ccccc3n2)c1C(=O)Nc1ccc(Nc2ccc(F)c(F)c2)nc1 [Example 245, N-{6-[(3,4-difluorophenyl)amino]pyridin-3-yl}-3-methyl-5-(quinoxalin-2-ylamino)-1,2-thiazole-4-carboxamide] | 1800 nM | 9900 nM
CCN(CC)CCNC(=O)c1cccc(NC(=O)c2c(C)nsc2Nc2cnccn2)c1 [Example 247, N-(3-{[2-(diethylamino)ethyl]carbamoyl}phenyl)-3-methyl-5-(pyrazin-2-ylamino)-1,2-thiazole-4-carboxamide] | 1200 nM | > 10000 nM

The remaining compounds from weak to strong by IC50 [1], led by results:

IC50 [1] | IC50 (HeLa) | Structure (SMILES)
1000 nM | 9600 nM | Cc1nsc(Nc2cnc3ccccc3n2)c1C(=O)Nc1ccc(NC2CCN(C(=O)OC(C)(C)C)CC2)nc1 [Example 234, tert-butyl 4-{[5-({[3-methyl-5-(quinoxalin-2-ylamino)-1,2-thiazol-4-yl]carbonyl}amino)pyridin-2-yl]amino}piperidine-1-carboxylate]
530 nM | 2100 nM | COc1ccc(NC(=O)c2c(C)nsc2Nc2cnc3ccccc3n2)c(CC#N)n1 [Example 235, N-[2-(cyanomethyl)-6-methoxypyridin-3-yl]-3-methyl-5-(quinoxalin-2-ylamino)-1,2-thiazole-4-carboxamide]
510 nM | 1100 nM | Cc1nsc(Nc2cc(C#N)ccn2)c1C(=O)Nc1cccc(C(=O)OC(C)(C)C)c1 [Example 239, tert-butyl 3-[({5-[(4-cyanopyridin-2-yl)amino]-3-methyl-1,2-thiazol-4-yl}carbonyl)amino]benzoate]
330 nM | 7300 nM | Cc1nsc(Nc2ccc(C#N)cn2)c1C(=O)Nc1ccc(S(C)(=O)=O)cc1 [Example 246, 5-[(5-cyanopyridin-2-yl)amino]-3-methyl-N-[4-(methylsulfonyl)phenyl]-1,2-thiazole-4-carboxamide]
310 nM | 8300 nM | Cc1nsc(Nc2cncc(C(F)(F)F)n2)c1C(=O)Nc1ccc(C(=O)NC2CCN(CC(F)F)CC2)cc1 [Example 225, N-N-(4-{[1-(2,2-difluoroethyl)piperidin-4-yl]carbamoyl}phenyl)-3-methyl-5-{[6-(trifluoromethyl)pyrazin-2-yl]amino}-1,2-thiazole-4-carboxamide]
180 nM | 270 nM | Cc1nsc(Nc2cnc(C(F)(F)F)cn2)c1C(=O)Nc1ccc(OCC2CCCN(C(=O)OC(C)(C)C)C2)nc1 (stereo not shown) [Example 228, tert-butyl 3-{[(5-{[(3-methyl-5-{[5-(trifluoromethyl)pyrazin-2-yl]amino}-1,2-thiazol-4-yl)carbonyl]amino}pyridin-2-yl)oxy]methyl}piperidine-1-carboxylate]
140 nM | 190 nM | Cc1nsc(Nc2cnc(C(F)(F)F)cn2)c1C(=O)Nc1ccc(F)c(OC2CCN(C(=O)OC(C)(C)C)CC2)c1 [Example 229, tert-butyl 4-(2-fluoro-5-{[(3-methyl-5-{[5-(trifluoromethyl)pyrazin-2-yl]amino}-1,2-thiazol-4-yl)carbonyl]amino}phenoxy)piperidine-1-carboxylate]
130 nM | 750 nM | Cc1nsc(Nc2ccc(C#N)cn2)c1C(=O)Nc1cccc(C(=O)OC(C)(C)C)c1 [Example 240, tert-butyl 3-[({5-[(5-cyanopyridin-2-yl)amino]-3-methyl-1,2-thiazol-4-yl}carbonyl)amino]benzoate]
110 nM | 320 nM | Cc1nsc(Nc2cncc(C(F)(F)F)n2)c1C(=O)Nc1ccc(OC2CCN(CC(F)F)CC2)c(F)c1 [Example 224, N-(4-{[1-(2,2-difluoroethyl)piperidin-4-yl]oxy}-3-fluorophenyl)-3-methyl-5-{[6-(trifluoromethyl)pyrazin-2-yl]amino}-1,2-thiazole-4-carboxamide]
